Test results as given in patent publication US20110105397A1, “METHOD FOR TREATING HEART FAILURE WITH STRESSCOPIN-LIKE PEPTIDES” (priority 2009, published 2011).
Like-named read-outs stand apart in the source and are kept apart here.

Key:
[1] = test system: anaesthetized mongrel dogs; experiment: Hemodynamic, angiographic, echocardiographic profile in anaesthetized healthy dogs, 30-minute IV infusion; type: in vivo, dog; details: for CO (Cardiac output) / HR (Heart rate) / LV + dP/dt (LV contractility) / LVEDA (LV end diastolic area) / LVEDV (LV end diastolic volume) / LVEF (LV ejection fraction) / LVESA (LV end systolic area) / LVESV (LV end systolic volume) / LVFAS (LV fractional area of shortening) / PSAP (Peak systolic aortic pressure) / SV (Stroke volume): 30 min
Description: The effects of h-SCP (SEQ ID NO: 1) on cardiovascular function were also assessed in anaesthetized mongrel dogs following intravenous bolus and 30-minute infusions. Hemodynamic and left ventricular systolic and diastolic function was evaluated using conventional hemodynamic, angiographic, echocardiographic, and radiographic methods with the results summarized in Table 16.
(§1) The findings described above were further examined in a study, in which h-SCP (SEQ ID NO:1) was infused over a 30-minute period at the same total doses that were administered by bolus as described above with the results presented in Table 17 and FIGS. 11A & B. As in the case of bolus dosing h-SCP (SEQ ID NO:1) elicited dose- (infusion-) dependent changes in blood pressure, left ventricular systolic and diastolic function, and heart rate. However, at the lower range of the dose- (infusion-) response curve there was a pronounced lessening in the positive chronotropic and blood pressure response with marked and significant increase in cardiac function measured as increased CO and LVEF. […] The corresponding plasma concentration of h-SCP (SEQ ID NO:1) was 4,577 pg/mL.

in vivo = details: dog, iv
Description: as §1
(§2) A sandwich immunoassay was developed using an affinity purified goat polyclonal antibody, specific to h-SCP that was pre-coated onto a microplate with integrated electrodes. h-SCP molecules present in the sample will bind to the capture polyclonal antibody coated on the plate. After washing away any unbound substances, a sulfo-tagged mouse monoclonal anti-h-SCP antibody was added. This conjugated antibody will bind to the h-SCP molecules captured on the microplate and the quantity of analyte was determined by electrochemiluminescence. The amount of signal generated is directly proportional to the h-SCP concentration in the sample or standard. The standard curve range is 3.125-1600 pg/mL with a quantifiable range from 10-800 pg/mL. A sample volume of 25 μL (in duplicate) is required for this assay. This immunoassay is specific for human and dog stresscopin and human urocortin III (h-UCN3). […] After completion of the analysis, based on a comparison of reference standards between the ELISA and HPLC method, a correction factor of 1.57 was applied to all bioanalytical data.

[2] = Nonclinical pharmacokinetics in rats; parameters: species or system rat; details: in vivo
Description: as §2
The nonclinical pharmacokinetics of h-SCP (SEQ ID NO:1) and pegylated stresscopin-like peptides were studied in rats, dogs, and cynomolgus monkeys (cyno). Nonclinical pharmacokinetic studies focused on characterization of IV infusion at pharmacologically relevant dose levels, supplemented with IV and SC bolus and toxicokinetic analysis.

[3] = female, rat IV infusion 3 hours, F, 83.3 ng/kg/min
[4] = female, rat IV infusion 3 hours, F, 167 ng/kg/min
[5] = female, rat IV infusion 3 hours, F, 333 ng/kg/min
[6] = male, 3000 ng/kg, rat IV bolus, M, 3,000 ng/kg
[7] = male, 10000 ng/kg, rat IV bolus, M, 10,000 ng/kg
[8] = male, 300000 ng/kg, rat IV bolus, M, 300,000 ng/kg
[9] = male, rat IV infusion 3 hours, M, 83.3 ng/kg/min
[10] = male, rat IV infusion 3 hours, M, 167 ng/kg/min
[11] = male, rat IV infusion 3 hours, M, 333 ng/kg/min

In the case of “H-TKFTLSLDVPTNIMNLLFNIAKAKNLRAQAAANAHLMAQI-NH2 [SEQ ID NO: 1, TKFTLSLDVPTNIMNLLFNIAKAKNLRAQAAANAHLMAQI-NH2]”, the “CO (Cardiac output)” value ([1]; IV infusion 22 ng/kg/min) was 2.32 L/min, the “HR (Heart rate)” value ([1]; IV infusion 22 ng/kg/min) was 81.2 beats/min and the “LV + dP/dt (LV contractility)” value ([1]; IV infusion 22 ng/kg/min) was 1598 mmHg/sec. For the same substance, the “LVEDA (LV end diastolic area)” value ([1]; IV infusion 22 ng/kg/min) was 12.2 cm^2, the “LVEDV (LV end diastolic volume)” value ([1]; IV infusion 22 ng/kg/min) was 53.0 mL and the “LVEF (LV ejection fraction)” value ([1]; IV infusion 22 ng/kg/min) was 54.0%. For the same substance, the “LVESA (LV end systolic area)” value ([1]; IV infusion 22 ng/kg/min) was 6.3 cm^2, the “LVESV (LV end systolic volume)” value ([1]; IV infusion 22 ng/kg/min) was 24.5 mL and the “LVFAS (LV fractional area of shortening)” value ([1]; IV infusion 22 ng/kg/min) was 49%. For the same substance, the “PSAP (Peak systolic aortic pressure)” value ([1]; IV infusion 22 ng/kg/min) was 95.0 mmHg, the “SV (Stroke volume)” value ([1]; IV infusion 22 ng/kg/min) was 28.5 mL and the “CO (Cardiac output)” value ([1]; IV infusion 43 ng/kg/min) was 2.82 L/min. For the same substance, the “HR (Heart rate)” value ([1]; IV infusion 43 ng/kg/min) was 88.7 beats/min, the “LV + dP/dt (LV contractility)” value ([1]; IV infusion 43 ng/kg/min) was 1875 mmHg/sec and the “LVEDA (LV end diastolic area)” value ([1]; IV infusion 43 ng/kg/min) was 11.9 cm^2. For the same substance, the “LVEDV (LV end diastolic volume)” value ([1]; IV infusion 43 ng/kg/min) was 55.2 mL, the “LVEF (LV ejection fraction)” value ([1]; IV infusion 43 ng/kg/min) was 57.5% and the “LVESA (LV end systolic area)” value ([1]; IV infusion 43 ng/kg/min) was 5.8 cm^2. For the same substance, the “LVESV (LV end systolic volume)” value ([1]; IV infusion 43 ng/kg/min) was 23.5 mL, the “LVFAS (LV fractional area of shortening)” value ([1]; IV infusion 43 ng/kg/min) was 51.5% and the “PSAP (Peak systolic aortic pressure)” value ([1]; IV infusion 43 ng/kg/min) was 95.2 mmHg. For the same substance, the “SV (Stroke volume)” value ([1]; IV infusion 43 ng/kg/min) was 31.7 mL, the “CO (Cardiac output)” value ([1]; IV infusion 86 ng/kg/min) was 2.81 L/min and the “HR (Heart rate)” value ([1]; IV infusion 86 ng/kg/min) was 91.0 beats/min. The “LV + dP/dt (LV contractility)” value ([1]; IV infusion 86 ng/kg/min) was 1622 mmHg/sec, the “LVEDA (LV end diastolic area)” value ([1]; IV infusion 86 ng/kg/min) was 11.8 cm^2 and the “LVEDV (LV end diastolic volume)” value ([1]; IV infusion 86 ng/kg/min) was 54.2 mL. For the same substance, the “LVEF (LV ejection fraction)” value ([1]; IV infusion 86 ng/kg/min) was 56.5%, the “LVESA (LV end systolic area)” value ([1]; IV infusion 86 ng/kg/min) was 5.9 cm^2 and the “LVESV (LV end systolic volume)” value ([1]; IV infusion 86 ng/kg/min) was 23.5 mL. For the same substance, the “LVFAS (LV fractional area of shortening)” value ([1]; IV infusion 86 ng/kg/min) was 50.0%, the “PSAP (Peak systolic aortic pressure)” value ([1]; IV infusion 86 ng/kg/min) was 91.7 mmHg and the “SV (Stroke volume)” value ([1]; IV infusion 86 ng/kg/min) was 30.7 mL. For the same substance, the “CO (Cardiac output)” value ([1]; IV infusion 146 ng/kg/min) was 2.97 L/min, the “HR (Heart rate)” value ([1]; IV infusion 146 ng/kg/min) was 102.5 beats/min and the “LV + dP/dt (LV contractility)” value ([1]; IV infusion 146 ng/kg/min) was 1594 mmHg/sec. The “LVEDA (LV end diastolic area)” value ([1]; IV infusion 146 ng/kg/min) was 11.5 cm^2, the “LVEDV (LV end diastolic volume)” value ([1]; IV infusion 146 ng/kg/min) was 49.5 mL and the “LVEF (LV ejection fraction)” value ([1]; IV infusion 146 ng/kg/min) was 58.2%. For the same substance, the “LVESA (LV end systolic area)” value ([1]; IV infusion 146 ng/kg/min) was 5.6 cm^2, the “LVESV (LV end systolic volume)” value ([1]; IV infusion 146 ng/kg/min) was 20.7 mL and the “LVFAS (LV fractional area of shortening)” value ([1]; IV infusion 146 ng/kg/min) was 51%. The “PSAP (Peak systolic aortic pressure)” value ([1]; IV infusion 146 ng/kg/min) was 90.0 mmHg, the “SV (Stroke volume)” value ([1]; IV infusion 146 ng/kg/min) was 28.7 mL and the “CO (Cardiac output)” value ([1]; IV infusion 437 ng/kg/min) was 3.25 L/min. The “LV + dP/dt (LV contractility)” value ([1]; IV infusion 437 ng/kg/min) was 1657 mmHg/sec, the “LVEDA (LV end diastolic area)” value ([1]; IV infusion 437 ng/kg/min) was 10.8 cm^2 and the “LVEDV (LV end diastolic volume)” value ([1]; IV infusion 437 ng/kg/min) was 46.0 mL. For the same substance, the “LVEF (LV ejection fraction)” value ([1]; IV infusion 437 ng/kg/min) was 60.7%, the “LVESA (LV end systolic area)” value ([1]; IV infusion 437 ng/kg/min) was 5.1 cm^2 and the “LVESV (LV end systolic volume)” value ([1]; IV infusion 437 ng/kg/min) was 18.2 mL. The “LVFAS (LV fractional area of shortening)” value ([1]; IV infusion 437 ng/kg/min) was 53.5%, the “PSAP (Peak systolic aortic pressure)” value ([1]; IV infusion 437 ng/kg/min) was 89.5 mmHg and the “SV (Stroke volume)” value ([1]; IV infusion 437 ng/kg/min) was 28 mL. For the same substance, the “HR (Heart rate)” value ([1]; IV infusion 437 ng/kg/min, junctional tachycardia) was 117.3 beats/min, the “minimum anticipated biological effect level (MABEL)” value ([1]; healthy dogs) was 22 ng/kg/min and the “infusion rate for minimal effect” value ([1]; healthy dogs, 30-minute infusion) was 43 ng/kg/min. For the same substance, the level at 0.5 h (in vivo; 22 ng/kg/min) was 0.62 ng/mL, the level at time molar at 0.5 h (in vivo; 22 ng/kg/min) was 0.142 nM and the level at 0.5 h (in vivo; 43 ng/kg/min) was 4.58 ng/mL. For the same substance, the level at time molar at 0.5 h (in vivo; 43 ng/kg/min) was 1.05 nM, the level at 0.5 h (in vivo; 86 ng/kg/min) was 5.14 ng/mL and the level at time molar at 0.5 h (in vivo; 86 ng/kg/min) was 1.18 nM. For the same substance, the level at 0.5 h (in vivo; 146 ng/kg/min) was 23.6 ng/mL, the level at time molar at 0.5 h (in vivo; 146 ng/kg/min) was 5.41 nM and the level at 0.5 h (in vivo; 437 ng/kg/min) was 67.1 ng/mL. It also gave a level at time molar at 0.5 h (in vivo; 437 ng/kg/min) of 15.4 nM, an AUC(0-inf) [2, 3] of 1.47 ng·h/mL and a Cmax [2, 3] of 0.906 ng/mL. The clearance ([2]; female, rat IV infusion 3 hours, F, 83.3 ng/kg/min, read-out: CL) was 107 mL/min/kg, the AUC(0-inf) [2, 4] was 1.15 ng·h/mL and the Cmax [2, 4] was 0.683 ng/mL. The clearance ([2]; female, rat IV infusion 3 hours, F, 167 ng/kg/min, read-out: CL) was 271 mL/min/kg, the AUC(0-inf) [2, 5] was 4.45 ng·h/mL and the Cmax [2, 5] was 2.67 ng/mL. For the same substance, the clearance ([2]; female, rat IV infusion 3 hours, F, 333 ng/kg/min, read-out: CL) was 130 mL/min/kg, the half-life ([2]; female, rat, iv, t1/2 alpha) was 1.9 min and the half-life ([2]; female, rat, iv, t1/2 terminal) was 58.2 min. It also gave an AUC(0-inf) [2, 6] of 0.522 ng·h/mL, a Cmax [2, 6] of 4.8 ng/mL and a clearance ([2]; male, 3000 ng/kg, rat IV bolus, M, 3,000 ng/kg, read-out: CL) of 109 mL/min/kg. For the same substance, the AUC(0-inf) [2, 7] was 1.5 ng·h/mL, the Cmax [2, 7] was 13.6 ng/mL and the clearance ([2]; male, 10000 ng/kg, rat IV bolus, M, 10,000 ng/kg, read-out: CL) was 116 mL/min/kg. The Cmax ([2]; male, 50000 ng/kg, rat IV bolus, M, 50,000 ng/kg) was 224 ng/mL, the clearance ([2]; male, 50000 ng/kg, rat IV bolus, M, 50,000 ng/kg, read-out: CL) was 41.8 mL/min/kg and the AUC(0-inf) [2, 8] was 99.7 ng·h/mL. It also gave a Cmax [2, 8] of 780 ng/mL, a clearance ([2]; male, 300000 ng/kg, rat IV bolus, M, 300,000 ng/kg, read-out: CL) of 50.1 mL/min/kg and an AUC(0-inf) [2, 9] of 1.24 ng·h/mL. For the same substance, the Cmax [2, 9] was 0.752 ng/mL, the clearance ([2]; male, rat IV infusion 3 hours, M, 83.3 ng/kg/min, read-out: CL) was 116 mL/min/kg and the AUC(0-inf) [2, 10] was 2.43 ng·h/mL. It also gave a Cmax [2, 10] of 1.53 ng/mL, a clearance ([2]; male, rat IV infusion 3 hours, M, 167 ng/kg/min, read-out: CL) of 109 mL/min/kg and an AUC(0-inf) [2, 11] of 4.85 ng·h/mL. The Cmax [2, 11] was 2.86 ng/mL, the clearance ([2]; male, rat IV infusion 3 hours, M, 333 ng/kg/min, read-out: CL) was 118 mL/min/kg and the half-life ([2]; rat, alpha-phase half-life (t1/2 alpha)) was < 5 min. For the same substance, the “time to apparent steady-state plasma concentration after initiation of infusion” value ([2]; rat, iv) was ≤ 2 h and the clearance ([2]; rat, rats, IV bolus, read-out: clearance values) was 42 to 116 mL/min/kg.
